Measurements: paper PMC3409115, “Diverse Inhibitor Chemotypes Targeting Trypanosoma cruzi CYP51” (PLoS Neglected Tropical Diseases, 2012)
Like-named read-outs stand apart in the source and are kept apart here.

What was measured:
T. cruzi CYP51 = molecular target: T1, T. cruzi CYP51 (Trypanosoma cruzi, UniProt Q7Z1V1); assay: HTS spectral-mode binding screen, type II difference spectra scored 0-5
T1 construct: had the first 21 residues upstream of K22 replaced with the fragment MAKKKKK; His6 (C); made in house
T1 sequence (Q7Z1V1 15-481, looked up, natural form): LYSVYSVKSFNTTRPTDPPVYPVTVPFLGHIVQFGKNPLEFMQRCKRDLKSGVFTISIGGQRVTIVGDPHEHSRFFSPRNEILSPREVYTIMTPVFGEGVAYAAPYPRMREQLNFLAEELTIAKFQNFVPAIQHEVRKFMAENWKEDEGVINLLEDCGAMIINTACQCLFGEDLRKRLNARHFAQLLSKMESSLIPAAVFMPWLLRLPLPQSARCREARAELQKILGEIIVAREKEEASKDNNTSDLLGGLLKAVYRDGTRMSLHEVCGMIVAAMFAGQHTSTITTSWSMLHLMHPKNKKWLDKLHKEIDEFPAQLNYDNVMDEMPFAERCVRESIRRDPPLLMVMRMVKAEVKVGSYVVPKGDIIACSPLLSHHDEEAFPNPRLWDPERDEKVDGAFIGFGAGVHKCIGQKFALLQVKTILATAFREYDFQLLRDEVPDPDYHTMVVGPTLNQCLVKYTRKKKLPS

[1] = system: T. cruzi-infected skeletal myoblasts (intracellular amastigotes); assay: Hit cross-validation in T. cruzi-infected mammalian cells (image-based assay); assay type: cell-based, Trypanosoma cruzi
Description: Bovine embryo skeletal muscle cells or mouse C2C12 myoblasts (ATCC#CRL-1772) used in the cross-validation assay, were cultivated respectively in RPMI 1640 medium supplemented with 5% horse serum and Dulbecco's Modified Eagle's Medium H-21 containing 4.5 g/l glucose (DMEM H-21) (Cell Culture Facility, UCSF), supplemented with 5% fetal bovine serum (FBS) (Sigma Chemical Co., St. Louis, MO, USA), 25 mM HEPES, 2 mM L-glutamine, 100 U/ml penicillin, 100 µg/ml streptomycin. T. cruzi CAI-72 trypomastigotes were obtained from supernatant of infected cultures 4 to 7 days post-infection. Cultures were maintained at 37°C in an atmosphere of 5% CO2. To harvest parasites, the supernatant of infected cultures containing released trypomastigotes was collected and centrifuged at 600 rpm for 5 min to remove cell debris; the pellet was then discarded and the trypomastigotes remaining in the media were concentrated by spinning the culture tubes at 3300 rpm for 15 minutes. The parasite pellet was re-suspended in 2–5 ml of fresh media. Trypomastigote concentration was determined using a Neubauer hemocytometer.
(§1) Compound cross-validation in T. cruzi infected skeletal myoblasts (bovine embryo skeletal muscle or C2C12 lineage) was performed according to the protocol adapted from Engel and co-authors. Compounds stored as 10 mM stocks in DMSO were freshly diluted immediately prior to use. […] To prepare plates for the assay, skeletal myoblasts cultured in […] flasks were washed once with phosphate buffered saline (PBS) and then incubated with 0.25% trypsin in PBS for 1–3 minutes for detachment. The trypsin solution was removed and myoblasts were released from the flask bottom. Fresh medium was added and cell concentration was determined using a Neubauer hemocytometer. Myoblasts in 50 µl of culture medium were transferred to the clear-bottom wells of black 96-well plates (Greiner Bio-One, #655090) at a density of 1500 cells/well and infected with 50 µl trypomastigote culture at 7500 parasites/well (1∶5 ratio). The cells were allowed to adhere and spread for 24 h in the incubator before the media was removed and 100 µl of fresh medium containing 0, 0.04, 0.12, 0.37, 1.10, 3.30 or 10 µM of test compound was added to each well, followed by 72 h incubation at 37°C in an atmosphere of 5% CO2. Posaconazole was used as a positive control at the same concentrations as the test compounds. The cells were then fixed by adding 100 µl/well of 8% formaldehyde in PBS, resulting in a 4% working concentration of formaldehyde. To stain the nucleus of the host cell and the nucleus and kinetoplast of parasites, cell membranes were first permeabilized by washing once with 100 µl of 0.1% Triton X-100 in PBS, then treated for 1 h with 0.2 µg/ml of the fluorescent DNA dye, 4,6-diamidino-2-phenylindole (DAPI), followed by one wash with PBS. The fixed plates were kept at 4°C and protected from light until images were acquired.
(§2) Plates were allowed to equilibrate to room temperature and images were acquired by the IN Cell Analyzer 2000 (GE Healthcare) with a 20× objective, 5 fields per well, with 350/50 nm and 460/40 nm fluorescent excitation and emission filters. In the absence of drug cytotoxicity, at least 800 cells were imaged and counted per well. The images were processed and analyzed by IN Cell Analyzer Developer 1.6 software. The size parameters used to segment host and parasite organelles were 125 µm^2 for host nucleus, and 1–2 µm^2 for parasite nucleus/kinetoplast. Since DAPI also strongly stains host heterochromatin regions that display as shapes resembling parasites ( Figure 3 ), particles co-localized to host nuclei were excluded from quantification, while parasite aggregates near the host nucleus were counted as infected cells.

[2] = system: host cell (skeletal myoblasts, bovine embryo skeletal muscle or C2C12); assay: Host cell toxicity in the cross-validation assay; assay type: cell-based; conditions: host cells in cross-validation assay, up to 10 µM
Description: as §1
as §2, with “cells. Numbers of host cells and intracellular amastigotes were determined based on host cell and parasite nucleus and parasite kinetoplast quantification, providing a measure of growth inhibition during the first 72 h of post-infection treatment compared to untreated controls.” for “cells.”
^aToxicity was assessed as the highest percentage of host cell growth inhibition caused by compound treatment. Scores are assigned as 1-<20%; 2-21-30%; 3- 31-40%; 4-41-50% and 5->50% growth inhibition.

[3] = spectral mode, four serial dilutions 2 µM to 12.5 µM, 2 µM CYP51
[4] = Trypanosoma cruzi, Myoblast, 72 h, read-out: EC50 against T. cruzi parasites in HTS assay used to rank order the hits
[5] = T. cruzi-infected myoblasts, 72 h treatment, read-out: EC50 against T. cruzi parasites in HTS assay used to rank order the hits
[6] = Trypanosoma cruzi, Myoblast, 72 h, T. cruzi-infected myoblasts, 72 h treatment, read-out: EC50 against T. cruzi parasites in HTS assay used to rank order the hits
[7] = type II difference spectra scored 0-5, second highest rated hit compound cluster

Structure (SMILES)	HTS binding score (T. cruzi CYP51; [3])	EC50 [1, 4]	Toxicity score (highest percentage of host cell growth inhibition) [2]	EC50 [1, 5]	EC50 [1, 6]	HTS binding score (T. cruzi CYP51; [7])	EC50 ([1]; Trypanosoma cruzi, Myoblast, 72 h, read-out: EC50 averaged from two independent cross-validation assays for individually repurchased hits)
O=C(c1ccc(Cl)cc1Cl)C(c1cccnc1)C(O)C(Cl)(Cl)Cl (stereo not drawn) [Compound 34]	5	6.87 µM	2 (2-21-30%)				
CCOC(=O)C1=C(C)N(C)C(C)=C(C(=O)OCC)C1c1ccncc1 [Compound 29]	5	5.18 µM	1 (1-<20%)				
Cn1c(SCc2nc(-c3ccc(Cl)cc3)no2)nnc1-c1ccncc1 [Compound 40]	5	7.67 µM	1 (1-<20%)				
Clc1ccc(Cl)c(SCCc2ccncc2)c1 [Compound 38]		7.41 µM	2 (2-21-30%)				
O=S(=O)(NCc1csc(-c2cccnc2)n1)c1ccc(Br)cc1 [Compound 32]		6.5 µM	2 (2-21-30%)				
CCCCNC(=O)c1cc(-c2ccncc2)nc2ccccc12 [Compound 50]	5	8.4 µM	4 (4-41-50%)				
Cc1ccc(OCCCCCn2ccnc2)cc1C [Compound 4]			3 (3- 31-40%)	0.548 µM	0.55 µM		
O=C(NCCc1ccncc1)Nc1ccc(Cl)c(Cl)c1 [Compound 20]		2.55 µM	1 (1-<20%)				
CCn1c(C(=O)NCc2cccnc2)cc2oc3ccccc3c21 [Compound 16]		2.2 µM	4 (4-41-50%)				
Cc1ccc(NC(=O)c2sc3nc(-c4ccncc4)ccc3c2N)cc1Cl [Compound 22]	2	2.86 µM	2 (2-21-30%)				
Cc1ccc(/C(=C\n2ccnc2)c2ccccc2)cc1 [Compound 10]			4 (4-41-50%)	0.92 µM	0.95 µM		
CC(C)=CCCC1=CCC2(COC(c3cccnc3)OC2)C(C)C1 (stereo not drawn) [Compound 31]	2	6.39 µM	1 (1-<20%)				
COC(=O)C1=C(C)N(Cc2cccnc2)C(=O)/C1=C\c1ccccc1OCc1ccccc1 [Compound 53]	3	9.06 µM	1 (1-<20%)				
N#CC1=C(N)OC2=C(C(=O)CC(c3ccccc3)C2)C1c1cccnc1 (stereo not drawn) [Compound 7]	3		4 (4-41-50%)	0.667 µM	0.67 µM	3	
Nc1c(C(=O)NCCc2c[nH]c3ccccc23)sc2nc(-c3cccnc3)ccc12 [Compound 57]	2	9.74 µM	1 (1-<20%)				
CC1=Nc2ncnn2C(c2cccnc2)/C1=C(\O)OC1CCCCC1 (stereo not drawn) [Compound 55]		9.54 µM	1 (1-<20%)				
c1ccc(CC(NCc2ccncc2)c2ccccc2)cc1 (stereo not drawn) [Compound 27]	5	4.82 µM	1 (1-<20%)				
O=P(Nc1cccnc1)(Oc1ccccc1Cl)Oc1ccccc1Cl [Compound 41]	5	7.73 µM	1 (1-<20%)				
COc1ccc(CNc2nc3ccccc3c3nc(-c4ccncc4)nn23)cc1 [Compound 15]	5	1.93 µM	3 (3- 31-40%)				1.93 µM
CCOC(=O)C1=C(N)Oc2ccc3ccccc3c2C1c1cccnc1 (stereo not drawn) [Compound 51]	2		1 (1-<20%)		8.58 µM	2	
CN(C)C(C/N=C(\S)NCCc1ccccc1)c1cccnc1 (stereo not drawn) [Compound 46]	1	8.18 µM	1 (1-<20%)				
Brc1ccc(OCCCn2ccnc2)cc1 [Compound 25]			2 (2-21-30%)		3.66 µM		
Cc1ccc(OCCCn2ccnc2)c(C)c1 [Compound 45]	5		3 (3- 31-40%)		8.01 µM		
CC(C)(C)/C(=C\n1ccnc1)c1ccc(C(F)(F)F)cc1 [Compound 8]			3 (3- 31-40%)	0.754 µM	0.75 µM		
CC(C)/C=C1\CC/C(=C\c2ccncc2)C1=O [Compound 35]		7.15 µM	1 (1-<20%)				
Oc1cccc(Nc2nc(-c3ccncc3)cs2)c1 [Compound 37]		7.33 µM	4 (4-41-50%)				
O=C(Cc1coc2ccc3ccccc3c12)NCc1cccnc1 [Compound 44]		7.93 µM	2 (2-21-30%)				
O=C(NCc1cccnc1)/C(=C\c1cccc(Oc2ccccc2)c1)S(=O)(=O)c1ccccc1 [Compound 52]		8.99 µM	5 (5->50% growth inhibition)				
